Results from US20210276960A1, “INHIBITORS OF TISSUE TRANSGLUTAMINASE 2 (TG2) AND USES THEREOF” (Northwestern University, priority 2020, published 2021).

Columns and labels:
[1] = molecular target: T1, His-tagged TG2 / biotinylated FN42 interaction (Homo sapiens, UniProt P21980); assay: ELISA of the TG2-FN interaction; format: binding
T1 construct: made in house
T1 sequence (P21980 1-687): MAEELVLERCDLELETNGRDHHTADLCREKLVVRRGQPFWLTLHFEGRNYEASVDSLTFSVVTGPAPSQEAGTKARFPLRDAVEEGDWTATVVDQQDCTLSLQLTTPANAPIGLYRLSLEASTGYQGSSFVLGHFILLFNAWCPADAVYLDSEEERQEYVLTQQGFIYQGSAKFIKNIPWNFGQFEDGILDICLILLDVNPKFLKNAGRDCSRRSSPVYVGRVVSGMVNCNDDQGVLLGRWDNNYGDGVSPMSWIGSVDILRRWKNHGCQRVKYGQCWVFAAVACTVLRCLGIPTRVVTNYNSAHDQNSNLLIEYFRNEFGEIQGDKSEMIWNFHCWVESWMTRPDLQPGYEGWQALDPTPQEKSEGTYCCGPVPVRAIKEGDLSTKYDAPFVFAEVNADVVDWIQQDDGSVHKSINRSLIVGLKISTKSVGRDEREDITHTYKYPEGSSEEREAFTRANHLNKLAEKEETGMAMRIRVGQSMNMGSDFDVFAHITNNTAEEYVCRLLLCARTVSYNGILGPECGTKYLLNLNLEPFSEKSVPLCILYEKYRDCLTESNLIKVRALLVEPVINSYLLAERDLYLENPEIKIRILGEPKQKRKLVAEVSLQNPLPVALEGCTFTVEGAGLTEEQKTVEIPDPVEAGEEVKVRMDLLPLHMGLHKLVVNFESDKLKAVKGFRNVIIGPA
Method: Confirmation using ELISA: An independent ELISA validated inhibition of TG2/FN complex formation by SMIs^11. The ELISA assay measured the binding between His6-TG2 captured to the wells by anti-His antibodies and biotinylated FN42 detectable with streptavidin-HRP (FIG. 12A). […] Selected compounds (at concentrations between 5 and 10 μM) inhibited the ELISA signal by 29.7% to 69.5%^11.
ELISA measured the interaction between recombinant His tagged TG2 (rTG2-His) and the biotinylated 42 kD fragment of FN (FN42) which were expressed and purified, as previously described (Yakubov et al., 2014). Briefly, a mixture of 10 nMrTG2-His and selected SMIs or DMSO was added to 96 well plates pre-coated with monoclonal anti-His antibody (Roche, Indianapolis, Ind.; 1:6000). The mixture was incubated for 1 h at RT with 5 nM biotinylated FN42. After washing, wells were incubated with streptavidin-HRP (Cell Signaling, #3999; 1:2000). The reaction was developed with 3,3′,5,5′tetramethylbenzidine (TMB) substrate (BD Biosciences, #555214) and the optical density at […] was measured by using a BioTek microplate reader (Winooski, Vt., USA). Data shown are means±SEM of two independent experiments (n=6).

Solubility assay = format: physicochemical; conditions: pH=7.4 PBS buffer, 2% DMSO
Method: Solubility was measured in a 384-well plate using a Synergy HTX plate reader. Starting with a 50 mM DMSO stock solution of test compounds, dilutions were made from 1 to 500 μM final concentrations using acetonitrile, keeping the final DMSO concentration at 2%. UV absorption was measured at 254 nm and absorbance versus concentration was plotted to give a standard curve. A DMSO stock of test compound was also diluted with pH=7.4 PBS buffer to give a final concentration of 250 μM containing 2% DMSO. This mixture was stirred on a plate shaker for 1 hr after which it was centrifuged at 2500 rpm for 3 min. 50 μL of the supernatant was removed, transferred to a 384-well plate, and the UV absorbance at 254 nm was measured. Absorbance of the test compound in PBS buffer was analyzed with the standard curve to determine solubility.

[2] = system: FAK phosphorylation in SKOV3 cells; assay: Western blotting, FAK phosphorylation dose response; format: cell-based; conditions: increasing doses (TG53 8 to 16 μM), 2 hours after adhesion to FN
Method: FIG. 33. Dose response effects induced by TG2-FN inhibitors on FAK phosphorylation.
Lysates were separated by SDS-PAGE, transferred onto PVDF membranes (Bio-Rad), incubated with primary and secondary antibodies and developed by using SuperSignal™ West Femto Maximum Sensitivity Substrate and Pierce™ ECL Western Blotting Substrate, respectively (Thermo Scientific). Images were obtained by using the ImageQuant LAS 4000 mini-imager (GE Healthcare, Pittsburgh, Pa.). Densitometry analysis was performed using Quantity One software (Bio-Rad) and results were normalized to GAPDH loading controls. DMSO 0 min time point was considered as 1 for comparative analysis.

[3] = system: integrin β1 on SKOV3 cells; assay: Flow cytometry of surface integrin β1, SKOV3; format: cell-based; conditions: serial concentrations
Method: FIG. 32. Flow cytometry analysis of integrin 31 plasma membrane expression. […] OC cells were pre-incubated 1 h with serial dilutions of MT4 (as compared to TG53- and DMSO-treated cells), and left to attach for on either plastic (P) or fibronectin (FN) coated 6-well plates. Anti-integrin 31 antibodies (0.5 μg/mL) were used as control.

OVCAR5 cells = assay: TIRF microscopy of β1 integrin distribution; format: cell-based, human; conditions: 1 μM or 5 μM, 1 h pre-treatment
Method: For assessing the potential effect of SMIs on 01 integrin distribution at the interface between cells and the FN matrix, OVCAR5 cells were treated for 1 h with either TG53 or MT-4 in serum-free media at 37° C., and then seeded onto FN-coated glass bottom microwell dishes (MatTek Corp. Ashland, Mass.) for 45 minutes at 37° C. Samples were fixed in PFA and blocked in 1% BSA. 01 integrin receptors were detected by using anti-01 integrin antibodies (clone P5D2, Chemicon, #MAB1959, 1:100) and AlexaFluor 568-conjugated anti-mouse secondary antibodies, while actin was labeled using Alexa Fluor 488-conjugated phalloidin. Cells were imaged with a Nikon Ti2 Microscope equipped with a Photometrics Prime 95B camera using a Nikon Plan Apo 100×1.49 NA TIRF objective.

SKOV3 cells = conditions: cited from earlier work

## Cc1cc(N(C)C)nc(Nc2ccc(NC(=O)Cc3ccccc3)cc2)n1 [MT-4]
[1]; 10 μM
  inhibition of rTG2-FN42 interaction relative to TG53: slightly more potently than TG53
Solubility assay; aqueous buffer, kinetic from dmso stock
  solubility at 1 h: 91.5 µM
[2]
  FAK phosphorylation: dose-dependent inhibition
[3]
  β1 integrin receptors at the plasma membrane: did not show significant downregulation
OVCAR5 cells
  β1 integrin distribution at the interface with FN: enhanced 31 integrin transposition towards the extreme edge of the cell

## COc1ccc(Cl)cc1C(=O)Nc1ccc(Nc2nc(C)cc(N(C)C)n2)cc1 [TG53]
[1]
  binding mode (Lineweaver-Burk plot analysis): competes for the same binding site in TG2 as FN42
[1]; 5 μM
  inhibition of ELISA signal: 65%
[1]; saturation curves of FN42 with increasing TG53, read-out: inhibition constant Ki
  Ki: 4.15 µM
SKOV3 cells
  cytotoxicity: not cytotoxic
Solubility assay
  solubility at 1 h: <5 µM
[2]
  FAK phosphorylation: attenuated
[3]
  β1 integrin receptors at the plasma membrane: did not show significant downregulation
OVCAR5 cells
  β1 integrin distribution at the interface with FN: modest displacement of integrin receptors towards the cell perimeter
